Experimental data: publication PMC7915858, “Complementary Effects of Carbamylated and Citrullinated LL37 in Autoimmunity and Inflammation in Systemic Lupus Erythematosus” (International Journal of Molecular Sciences, 2021)

Assays:
memory B-cells = assay: Maturation of purified B-cells into plasma cells, flow cytometry; format: cell-based, human; conditions: 7 days; for Plasma cells (CD38highCD27highCD19neg): hrIL-2 50UI/ml; for Stimulation of B-cells to mature into plasma cells, peptide-DNA complex: peptide premixed with DNA (15 μg/mL), hrIL-2 50 UI/mL
Procedure: PBMCs were isolated by Ficoll-Paque centrifugation (as described above). Total B-cells were isolated by using the Human B-Cell Isolation Kit II, (Miltenyi Biotec, Bergisch Gladbach, Germany), from fresh PBMCs. The purity of B-cells was verified by flow cytometry using the monoclonal anti-human CD19 fluorescein isothiocyanate (FITC). The percentage of memory B-cells was assessed by flow cytometry using monoclonal anti-human CD19 fluorescein, anti-human CD27 allophycocyanin and anti-human CD38 Pacific Blue antibodies (BD Biosciences, San Jose, CA, USA). The majority of B-cells (>80%) were memory cells expressing CD19/CD27 and low CD38 [29].
LL37/cit-LL37/carb-LL37 were each premixed with DNA (15 μg/mL) and added to the B-cell cultures in RMPI 10% FCS, after a 15-min incubation at room temperature. At day 2, hrIL-2 at 50UI/mL was added to the cultures, which were kept in the incubator for 7 days.
Maturation of B-cells into plasma cells was investigated after 7 days culture by flow cytometry (Gallios, BeckmanCoulter, Brea, CA, USA) following surface staining with the following monoclonal antibodies: anti-human CD19 fluorescein-, CD27 allophycocyanin-, CD38 Pacific Blue-conjugated (BD Biosciences, CA, USA). Analysis of the FCS files was performed by FlowJo (BD, San Jose, CA, USA) or by Kaluza (Beckman Coulter, Indianapolis, IN, USA).

[1] = system: native LL37-P1-specific T-cells (HLA-DRB5*0101 tetramer); assay: Peptide-MHC-tetramer staining of T-cells after PBMC stimulation; format: cell-based, human; conditions: 6 days stimulation, CD38hi CD4 T-cells; for Control (Ctr-B5) tetramer positive T-cells: Ctr-B5 tetr, lower panels Figure S6; for LL37-specific T-cells (LL37-B5 tetramer positive): LL37-B5 tetr, upper panels Figure S6
Procedure: Peptide-MHC-tetramers were from ImmunAware (Denmark). Staining was performed for 40 min with 1microL of tetramer suspension at 37 °C, followed by staining for CD4 (4 °C, 20 min), without washing. After incubation with anti-CD4 antibody, cells were washed, resuspended in PBS and kept at 4 °C. Before flow cytometry-acquisition, cells were labeled with PercP-conjugated 7-AAD to exclude dead cells. The peptide-MHC-tetramers used in this study are: the HLA-DR15-P1: tetramer of HLA-DRB1*1501 LLGDFFRKSKEKIGK (corresponding to the first aa at the NH2-term of the mature native LL37), (PE-conjugated) and the control peptide-MHC-tetramer called DR15-ctr: tetramer of HLA-DRB1*1501 […]1-169-185 (PE-conjugated). The other couple of peptide-MHC-tetramers used were HLA-DRB5*0101 loaded with the same LL37 epitope as above and the control tetramer HLA-DRB5*0101 loaded with the control epitope PVSKMRMATPLLMQA (CLIP-derived).

HLA-DR15 (DRB1*1501) = HLA-DR15 (DRB1*1501) (Homo sapiens, UniProt P01903+P01911); assay: Peptide-MHC class II binding (HLA-DR folding assay, LOCI/AlphaScreen); conditions: peptide titrated, 48 h at 18 °C, LOCI, two experiments, KD values only in picture (Table S2)
Procedure: (§1) Peptide-MHC-binding assays was performed by ImmunAware (Horsholm, Denmark). Binding was measured using a Luminescent Oxygen Channeling Immunoassay (LOCI), marketed by Perkin Elmer (Hopkinton, MA, USA) as AlphaScreen. This is a nonradioactive bead-based homogenous proximity assay, where the donor beads containing a photosensitizer compound, upon excitation with light at a 680 nm wavelength, converts ambient oxygen to energy-rich, short-lived singlet oxygen; this latter is transferred to acceptor beads, in close proximity only. The acceptor beads can respond to a single oxygen with a luminescence/fluorescence cascade, leading to an amplified signal in the 520–620 nm range. There is a tag binding to the donor beads: a biotin group engineered into the HLA β chain.
(§2) The acceptor beads are linked instead to a conformation-dependent HLA class II specific antibody (L243). Thus, only when a peptide binds well the HLA class II molecule, a corrected folded HLA class II molecule is formed and can be recognized by the L243 antibody. Biotinylated recombinant HLA class II molecules were diluted from an 8 M urea buffer into a folding buffer (PBS, 20% glycerol, Protease inhibitor mix). Different peptide concentrations, between 0.13 nM and 10,000 nM, were added into the assay. The tested peptides were titrated in 5-to-8 five-fold concentration, […]. The reaction mixtures were incubated for 48 h at 18 °C to allow peptide-HLA-complex formation to reach a steady state. After incubation, 15 μL of the folding mixture was transferred to a 384-well Optiplate (Perkin Elmer), followed by addition of 15 μL of a solution containing L243 acceptor beads and streptavidin donor beads (final concentration of beads was 5 μL/mL). The plates were incubated over night at 18 °C and then measured in enVisionTM, Perkin Elmer. Assay signals measured in OD450 were plotted against the offered peptide concentrations and analyzed by non-linear regression using GraphPad Prism. The peptide concentration resulting in half saturation, the half maximal effective concentration (EC50), was estimated by fitting the experimental data to the equation: Y = Bmax*X/(KD + X), where Y is the OD450 measurement of complexes formed and X is the concentration of ligand (peptide) offered. The EC50 approximates the KD as long as the receptor concentration used is less than the KD, thus avoiding ligand depletion.

HLA-DR1 (DRB1*0101) = HLA-DR1 (DRB1*0101) (Homo sapiens, UniProt P01903+P01911, /P40L/Q125E/R42F/V115G/Y59C); assay: as above; conditions: peptide titrated, 48 h at 18 °C, LOCI, two experiments, KD values only in picture (Table S2)
Procedure: as §1, §2

SLE CD4 T-cells = conditions: cited from earlier work
Text: The activation of autoreactive T- and B-cells characterizes Systemic Lupus Erythematosus (SLE), a rare but potentially severe disease, with poor therapeutic options. In this context, a deeper knowledge of the molecular pathways leading to autoimmunity in SLE may shed light over disease aspects still neglected and uncover novel disease biomarkers and therapy targets. The human cathelicidin antimicrobial peptide, (AMP, Uniprot P49913)—also called CAP-18 or FALL-39—is encoded by the human gene CAMP. The mature form, peptide LL37, which corresponds to the COOH-terminal part of the molecule ( ...

[2] = system: native LL37-P1-specific T-cells (HLA-DRB1*1501 tetramer); conditions: SLE PBMC culture, tetramers of HLA-DR1, HLA-DR15 or HLA-DRB5; cited from earlier work
Text: We have performed here similar experiments in SLE patients expressing the HLA-DR15 (HLA-DRB1*1501) and/or the DR16 alleles. Since both HLA-DR15- and HLA-DR16-positive individuals co-express DRB5 [[2 ...

Row | Substance | Plasma cells (CD38highCD27highCD19neg) (memory B-cells; 10 µM peptide + DNA, Figure S9b) | Plasma cells (CD38highCD27highCD19neg) (memory B-cells; 10 µM peptide alone, Figure S9a) | Plasma cells (CD38highCD27highCD19neg) (memory B-cells; 20 µM peptide + DNA, Figure S9c) | Stimulation of B-cells to mature into plasma cells, peptide-DNA complex (memory B-cells) | Control (Ctr-B5) tetramer positive T-cells [1] | LL37-specific T-cells (LL37-B5 tetramer positive) [1] | Binding to HLA-DRB1*1501 compared to cit-LL37 (HLA-DR15 (DRB1*1501)) | Binding to HLA-DRB1*1501 compared to cit-LL37 (HLA-DR15 (DRB1*1501); listed as Carb-LL37) | Binding to HLA-DRB1*0101 compared to cit-LL37 (HLA-DR1 (DRB1*0101)) | Binding to HLA-DRB1*0101 compared to cit-LL37 (HLA-DR1 (DRB1*0101); listed as Carb-LL37) | Antigen efficiency in SLE compared to native LL37 (SLE CD4 T-cells) | Expansion of T-cells specific for both cit-LL37 and native LL37 epitopes [2]
1 | L*LGDFFRK*SK*EK*IGKEFK*RIVQRIK*DFLRNLVPRTES [carb-LL37] | 14.73% | 7.27% | 28.09% | maintained LL37 ability to stimulate the B-cells to mature into plasma cells | 0.39% | 6.57% | equivalent to the binding efficiency of cit-LL37 | binds HLA-DR alleles similarly to cit-LL37 | equivalent to the binding efficiency of cit-LL37 | binds HLA-DR alleles similarly to cit-LL37 | – | –
2 | LLGDFFR(cit)KSKEKIGKEFKR(cit)IVQR(cit)IKDFLR(cit)NLVPR(cit)TES [cit-LL37, LL37 citrullinated at all five arginine sites] | – | – | – | abolishes the B-cell maturation into plasma cells | 0.54% | 2.48% | – | – | – | – | more efficient antigen in SLE than native LL37 | able to expand T-cells specific for both the cit-LL37 and the native LL37 epitopes
